How the values were obtained:
[1] = system: summer wheat crop plant (TRZAS; cv. Triso); test: Reduction in herbicide damage to summer wheat by safener, greenhouse post-emergence application, visual scoring; type: in vivo
Experimental: (§1) The seeds of the crop plants to be treated are laid out in soil in woodfiber pots (diameter ˜ 7 cm), covered with soil and grown in a greenhouse under good conditions for germination and growth. The trial plants were treated at the early leaf stage (BBCH10-BBCH12).
The herbicides used (component B) were used in the following formulations: • B2.81: WP • B2.85: WP • B2.92: WP • Cinmethylin: EC • Clomazone: WP • Ethofumesate: WP • Flufenacet: SC • Pinoxaden: WP • Saflufenacil: WP • Bicyclopyrone: WP • Picloram: WP • Metazachlor: SC • Flumioxazin: WP • Glyphosate potassium salt: SL • Topramezone: WP
(§2) The dose of the respective herbicides was chosen here such that it causes an average degree of visually apparent damage (min. 20%, max. 75%) compared to untreated crop plants at the evaluation time on a control group of crop plants without safener treatment that were included in the same trial.
(§3) In the respective herbicide/safener combinations, the safeners (component A) in the form of wettable powders (WP) were added in the dose specified; in these cases, herbicide and safener are thus applied as a mixture.
(§4) Application was effected in each case on to the above-ground parts of the plant, at a water application rate corresponding to 300 l/ha and with addition of wetting agent (Mero, 1.5 l/h a).
In the applications that contained pinoxaden, bicyclopyrone or topramezone, the herbicidal effect was enhanced by additionally adding ammonium sulfate (2 kg/ha).
(§5) After application, the plants were cultivated under good growth conditions in a greenhouse. On account of the different mechanisms of action of the herbicides used, the damaging effect of the herbicides was fully manifested at different times depending on the herbicide, and this in turn forms the basis for assessment of the safener action in the mixtures. Therefore, the damage was scored visually, depending on the herbicide/mixture, between 11 and 21 days after application.
(§6) The damage effect was assessed visually on a scale of 0-100% by comparison with untreated control plants, and averaged over 2 repeats per treatment.

[2] = system: summer barley crop plant (HORVS: cv. Quench); test: Reduction in herbicide damage to summer barley by safener, greenhouse post-emergence application, visual scoring; type: in vivo
Experimental: as §1
The herbicides used (component B) were used in the following formulations: • B2.81: WP • B2.85: WP • B2.92: WP • Clomazone: WP • Ethofumesate: WP • Flufenacet: SC • Fluroxypyr: EC • Saflufenacil: WP • Thiencarbazone-methyl: WP • Iodosulfuron-methyl-sodium: WP • Bifenox: WP • Glyphosate potassium salt: SL • Topramezone: WP
as §2, §3, §4
In the applications that contained pinoxaden or topramezone, the herbicidal effect was enhanced by additionally adding ammonium sulfate (2 kg/ha).
as §5, §6

Compound: C=C[C@]1(C(=O)N[C@H]2C=C[C@@H](C(=O)OC)C2)CC(c2cc(F)cc(F)c2)=NO1 [Compound B2.85, methyl (1S,4R)-4-[[[(5S)-3-(3,5-difluorophenyl)-5-vinyl-4H-1,2-oxazol-5-yl]carbonyl]amino]cyclopent-2-ene-1-carboxylate]
- Damage to the plant by the herbicide (in %) ([1]; in vivo): 60%
- Damage to the plant by the herbicide (in %) ([2]; in vivo): 60%

Compound: C[C@]1(C(=O)N[C@H]2C=C[C@@H](C(=O)O)C2)CC(c2cc(F)cc(F)c2)=NO1 [Compound B2.92, (1S,4R)-4-[[(5R)-3-(3,5-difluorophenyl)-5-methyl-4H-isoxazole-5-carbonyl]amino]cyclopent-2-ene-1-carboxylic acid]
- Damage to the plant by the herbicide (in %) ([1]; in vivo): 60%
- Damage to the plant by the herbicide (in %) ([2]; in vivo): 65%

Compound: CC1(C)CON(Cc2ccccc2Cl)C1=O [Compound B5.14, clomazone, reference compound]
- Damage to the plant by the herbicide (in %) ([1]; in vivo): 40%
- Damage to the plant by the herbicide (in %) ([2]; in vivo): 40%

Compound: CCOC1Oc2ccc(OS(C)(=O)=O)cc2C1(C)C (stereo not drawn) [Compound B5.21, ethofumesate, reference compound]
- Damage to the plant by the herbicide (in %) ([1]; summer wheat (TRZAS), herbicide dose 2000 g a.i./ha, without safener): 70%
- Damage to the plant by the herbicide (in %) ([2]; summer barley (HORVS), herbicide dose 2000 g a.i./ha, without safener): 60%

Compound: O=C(O)CNCP(=O)(O)O [Compound B7.5, glyphosate, reference compound]
- Damage to the plant by the herbicide (in %) ([1]; summer wheat (TRZAS), herbicide dose 400 g a.i./ha, without safener): 45%
- Damage to the plant by the herbicide (in %) ([2]; summer barley (HORVS), herbicide dose 400 g a.i./ha, without safener): 60%

Compound: CC(C)N(C)S(=O)(=O)NC(=O)c1cc(-n2c(=O)cc(C(F)(F)F)n(C)c2=O)c(F)cc1Cl [Compound B9.10, saflufenacil, reference compound]
- Damage to the plant by the herbicide (in %) ([1]; summer wheat (TRZAS), herbicide dose 10 g a.i./ha, without safener): 35%
- Damage to the plant by the herbicide (in %) ([1]; summer wheat (TRZAS), herbicide dose 20 g a.i./ha, without safener): 40%
- Damage to the plant by the herbicide (in %) ([2]; summer barley (HORVS), herbicide dose 20 g a.i./ha, without safener): 40%

Compound: topramezone [Compound B4.28, reference compound]
- Damage to the plant by the herbicide (in %) ([1]; summer wheat (TRZAS), herbicide dose 300 g a.i./ha, without safener): 40%
- Damage to the plant by the herbicide (in %) ([2]; summer barley (HORVS), herbicide dose 300 g a.i./ha, without safener): 50%
